Columns and labels:
[1] = Liver microsomal stability, human; type: in vitro ADME; conditions: human liver microsomes 0.5 mg/mL, compound 1 µM, NADPH 1 mM, 60 minutes
Procedure: Microsomal stability experiment of the compound. The details are as follows: A microsomal stability test was conducted on the compounds of the present invention. The test compounds were co-incubated with liver microsomes from different species, with or without the addition of NADPH. In the test system, the final concentration of the test compound was 1 µM, the final concentration of NADPH was 1 mM, and the final concentration of liver microsomes was 0.5 mg/mL.

HCT116-MTAPdel = assay: 2D anti-proliferation assay (CTG luminescence), MTAP-deficient HCT116 cells; type: cell-based; conditions: for IC50: Homo sapiens, HCT-116, HCT116 MTAP-deficient cells, 7-10 days incubation, CTG, read-out: HCT116-MTAPdel/IC50/nM; for HCT116 WT/MTAPdel Selectivity: ratio of IC50 HCT116 WT / MTAPdel
Procedure: (§1) HCT116 wild-type and MTAP-deficient cells were cultured in MCCOYS 5A medium containing 10% FBS and 1% penicillin-streptomycin and incubated in a 37°C, 5% CO2 incubator. A 40 µL cell suspension was added to each well of a 384-well microplate. Using Echo, 40 nL of the compound at different concentrations were added to each well, followed by incubation in a 37°C, 5% CO2 incubator for 7-10 days. 40 µL of CTG solution (Promega, Cat No. G7573) was added to each well and incubated away from light in a 37°C, 5% CO2 incubator for 30 minutes. Luminescence was measured using an Envision multimode plate reader (Perkin Elmer, Catalog No. Envision 2104). The luminescence signal was proportional to the ATP content in the system, and the ATP content directly reflected the number of viable cells in the system.

[2] = Caco-2 membrane permeability assay; type: in vitro ADME; conditions: human; for efflux ratio: Caco-2, Efflux Ratio = Papp (B-A)/Papp (A-B); for Papp A→B / Papp B→A: Caco-2, apical pH 6.5, basolateral pH 7.4
Procedure: (§2) Evaluation of membrane permeability of the molecules of the present invention. Samples will be analyzed using LC-MS to estimate the apparent permeability coefficient (Papp) of the compound in Caco-2 monolayer cells, wherein the pH of the apical chamber is 6.5, and the pH of the basolateral chamber is 7.4. The P-gp efflux transporter, BCRP, and MRP2 inhibitors (50 µM quinidine, 30 µM benzbromarone, and 20 µM sulfasalazine) can block the active efflux transport of the compound. The data will be used for calculating apparent permeability (Papp). Papp = (VA×⌊drug⌋acceptor)/(Area×Time×⌊drug⌋initial,donor) [formula] wherein, VA is the volume of the receptor well (unit: mL), area is the membrane surface area (for Transwell-96 well permeable support, it is 0.143 cm^2), and time is the total transport time (unit: seconds). Efflux Ratio = Papp (B−A)/Papp (A−B) [formula]

Caco-2 monolayer cells = assay: Caco-2 membrane permeability assay; type: in vitro ADME; conditions: Caco-2, Efflux Ratio = Papp (B-A)/Papp (A-B)
Procedure: as §2

HCT116-MTAPwt = assay: 2D anti-proliferation assay (CTG luminescence), wild-type HCT116 cells; type: cell-based; conditions: Homo sapiens, HCT-116, 7-10 days incubation
Procedure: By testing the activity of both of them, the inhibitory effect and selectivity of the molecules of the present invention for PRMT5 at the cellular level were shown.
as §1
ICso value calculation: [formula] • X: Log value of compound concentration • Y: Inhibition rate (%) Table 1: 2D Anti-proliferation Effects of Compounds on HTC116-MTAP del and Wild-type Colorectal Cancer HCT-116 Cell Lines.

MDR1 = assay: MDCK-MDR1 membrane permeability assay; type: in vitro ADME; conditions: dog, pH 7.4; MDCK-MDR1, Efflux Ratio = Papp (B-A)/Papp (A-B)
Procedure: (§3) Evaluation of membrane permeability of the molecules of the present invention to predict their permeability for the brain.
(§4) Specifically: 1. Pre-incubate MDCK-MDR1 cells at a density of 1.56×10^6 cells/mL, inoculate them in a 96-well plate to culture at 37°C for 7 days; 2. Remove the MDCKII-MDR1 plate from the incubator, wash twice with pre-warmed HBSS (10 mM HEPES, pH 7.4), and incubate at 37°C for 30 minutes; 3. Dilute the stock solution of the test compound with DMSO to obtain a 0.2 mM solution, then further dilute it with HBSS (10 mM HEPES, pH 7.4) to prepare a 1 µM working solution. For the blank control group, dilute with DMSO to obtain a 0.2 mM solution, then further dilute with HBSS (10 mM HEPES, pH 7.4) to obtain a 1 µM working solution. The final concentration of DMSO in the culture system is 0.5%; 4. Measure the transport rate of the drug from the apical side to the basolateral side. Add 125 µL of the 1 µM test compound solution into the Transwell insert (apical chamber) and immediately transfer 50 µL of the sample (D0 sample) from the apical chamber to a new 96-well plate. Fill the receptor plate wells (basolateral chamber) with 235 µL HBSS (10 mM HEPES, pH 7.4) and incubate at 37°C for 2 hours; 5. At the end of the incubation, transfer 50 µL of the sample from both the donor side and the acceptor side into the wells of a new 96-well plate, then add four volumes of cold acetonitrile containing the appropriate internal standard (IS). Before the LC-MS/MS analysis, take 100 µL of the supernatant and mix it with an appropriate volume of ultrapure water. Papp = (VA×⌊drug⌋acceptor)/(Area×Time×⌊drug⌋initial,donor) [formula] wherein VA is the volume of the acceptor well (unit: mL), area is the membrane surface area (for Transwell-96 well permeable support, it is 0.143 cm^2), and time is the total transport time (in seconds). Efflux Ratio = Papp (B−A)/Papp (A−B) [formula]

MDCK-MDR1 cells = assay: MDCK-MDR1 membrane permeability assay; type: in vitro ADME; conditions: MDCK-MDR1, Efflux Ratio = Papp (B-A)/Papp (A-B)
Procedure: as §3, §4

MDR1 (P-gp) = assay: MDCK-MDR1 membrane permeability assay; type: in vitro ADME; conditions: dog; MDCK-MDR1, 1 µM, pH 7.4, 2 hours
Procedure: as §3, §4

[3] = Pharmacokinetic evaluation in mice (IV and oral); conditions: female, CD1, mouse, in vivo
Procedure: CD1 female mice were used as test animals, and the compounds were administered orally or intravenously (oral dose of 10 mg/kg; intravenous dose of 2 mg/kg).
Experiment protocol: Three mice per group for oral administration, and three mice per group for intravenous administration. Oral: Plasma samples were collected before administration (0 h) and at 0.25, 0.5, 1, 2, 4, 8, and 24 hours post-administration; Intravenous: Plasma samples were collected before administration (0 h) and at 0.083, 0.25, 0.5, 1, 2, 4, 8, and 24 hours post-administration. The plasma drug concentrations in mice after oral and intravenous administration were determined using LC/MS/MS, and the collected data were analyzed using AB Sciex QTRAP 6500 software.

Row | Structure (SMILES) | CLint scaled at 1 µM [1] [mL/min/kg] | IC50 (HCT116-MTAPdel) [nM] | HCT116 WT/MTAPdel Selectivity (HCT116-MTAPdel) | efflux ratio [2] | Papp A→B [2] [×10⁻⁶ cm/s] | Papp B→A [2] [×10⁻⁶ cm/s] | Efflux (Caco-2 monolayer cells) | IC50 (HCT116-MTAPwt) [nM] | other results
1 | Cc1c(CO)c(N)nc2cc(F)c(C(=O)N(C)C3COc4cc(C(F)(F)F)ccc43)cc12 (racemic) [Compound A9] | 3.6 | 27 | 174 | 1.2 | 5.1 | 5.9 | < 2 | 4700 | 
2 | Cc1c(CO)c(N)nc2cc(F)c(C(=O)N(C)C3COCc4nc(C(F)(F)F)ccc43)cc12 (racemic) [Compound A10] | 11.1 | 18 | >556 | 3.8 | 8.1 | 31 |  | > 10000 | 
3 | Cc1c(CO)c(N)nc2cc(F)c(C(=O)N(C)[C@@H]3COc4cc(C(F)(F)F)ccc43)cc12 [Compound A9a] | 8.9 | 16 | 130 | 1.6 | 6.9 | 10.8 | < 2 | 2470 | efflux ratio at 2 h, 1 µM (MDR1): 1.2; Efflux (MDCK-MDR1 cells): 1.2; Papp A→B at 2 h, 1 µM (MDR1 (P-gp)): 5.1 ×10⁻⁶ cm/s; Papp B→A at 2 h, 1 µM (MDR1 (P-gp)): 5.9 ×10⁻⁶ cm/s; bioavailability [3]: 81%; AUC(0-t) ([3]; iv, 2 mg/kg): 19500 ng·h/mL; C0 ([3]; iv, 2 mg/kg): 4010 ng/mL; clearance ([3]; iv, 2 mg/kg): 1.7 mL/min/kg; half-life ([3]; iv, 2 mg/kg): 3.3 h; AUC(0-t) ([3]; po, 10 mg/kg): 74200 ng·h/mL; Cmax ([3]; po, 10 mg/kg): 5340 ng/mL; Tmax ([3]; po, 10 mg/kg): 2 h; half-life ([3]; po, 10 mg/kg): 5.9 h
